Values joined by “and” are separate entries in the source; they are usually repeats but may differ in a detail not shown here. Identical values can stand only once. Like-named read-outs stand apart in the source and are kept apart here.
How the values were obtained:
[1] = system: cancer cells; experiment: Antitumor activity of the compound in patient urine; assay type: cell-based; conditions: compound in patient urine tested against cancer cells
[2] = system: β-catenin; experiment: β-catenin protein levels in cancer cell lines; assay type: cell-based; conditions: in vitro within cancer cell lines
Text: Understanding the clinical relevance of the cancer stemness markers and identifying their predictive response to the Compound of the Invention is used herein to assist clinical development by selecting patients that will most likely to derive clinical benefit. In some embodiments, the methods provided herein use one or more well-known cancer stemness marker(s), such as, for example, the expression of p-STAT3 and/or other cancer stem cell related proteins such as β-catenin and NANOG. All these proteins can be easily detected using any of a variety of art-recognized techniques. In some embodiments, the cancer sternness marker is detected with immunohistochemistry with antibodies. Using the archival tissue samples collected from the phase I trial with the Compound of the Invention, the patient response to the Compound of the Invention was analyzed based on biomarker status. […] A significant improvement in survival was detected for patients with nuclear β-Catenin localization compared with patients having β-catenin localized to the cell membrane, HR=0.043, p value <0.001. As further evidence, in an in vitro study screening a panel of cancer cells, the cell lines with nuclear β-Catenin show a lower IC50 for the Compound of the Invention. […] Thus, STAT3 activation is involved in nuclear β-catenin regulation. […]

[3] = Phase I dose escalation trial: pharmacokinetic profile; assay type: in vivo, human; conditions: for Tmax / AUC(0-t) / concentration at 24 h / half-life / Cmax / AUC: human, plasma, oral, patient plasma; for AUC(0-t): read-out: AUC0-24; for concentration at 24 h: read-out: C24h; for half-life: read-out: T1/2,t (converted)
Experimental: Pharmacokinetics profile with oral bid dosing was also studied. The plasma concentration of the drug reached several folds over the efficacious concentration (in vitro IC50) as illustrated in Table 8.
To maintain drug plasma concentration at or above the efficacious level for a desirable duration and to further increase peak plasma concentration, we studied the pharmacokinetics of a 500 mg BID regimen (at 4 hour interval between two doses on the same day or “q4h”), and compared it to that of a 500 mg QD regimen (FIG. 1). […] In another suitable dosing regimen, 500 mg of Compound 1 were administered three times a day (TID) to human subjects.

[4] = system: β-catenin; experiment: Immunohistochemistry of CRC patient tumor tissue for β-catenin; assay type: in vivo, human; conditions: FIG. 4A
Experimental: CRC patient's archival tumor tissue samples were analyzed through immunohistochemistry (IHC) using labeled antibodies against β-catenin. […] For instance, close to 40% of the patients with high nuclear β-catenin levels before treatment survived longer than 100 weeks whereas none of those with high levels of membranous β-catenin survived beyond 25 weeks. This further confirms that the Compound of the Invention disrupts or somehow modulates the β-catenin function, and that the β-catenin pathway is implicated in colorectal cancers.

[5] = system: solid tumor that is metastatic, unresectable, or recurrent; experiment: Phase I dose escalation trial: preliminary antitumor activity; assay type: in vivo, human
Experimental: Each cycle consists of twice-daily oral administration of the compound for 4 weeks. Cycles were repeated every 4 weeks (28 days) until progression of disease, unacceptable toxicity, or another discontinuation criterion is met. The dose escalation trial was conducted as open label and multicenter trial. A modified Simon accelerated titration scheme was used for dose escalation.
The primary objective of the trial was to determine the safety, tolerability, and recommended phase II dose (RP2D). The secondary objectives of the trial were to determine the pharmacokinetic profile of the compound, pharmacodynamics of the compound, and preliminary antitumor activity of the compound.
The inclusion criteria included histologically or cytologically confirmed solid tumor that is metastatic, unresectable, or recurrent; >18 years of age; Measurable disease by RECIST; and Kamofsky ≥70%. The exclusion criteria included chemotherapy, radiotherapy, immunotherapy or investigational agent within 4 weeks of first dose; surgery within 4 weeks of first dose; and known brain metastases.

[6] = 20 mg, Total Daily Dose 20 (mg), qd
[7] = 40 mg, Total Daily Dose 40 (mg), qd
[8] = 80 mg, Total Daily Dose 80 (mg), bid q4h
[9] = 80 mg, Total Daily Dose 80 (mg), qd
[10] = 160 mg, Total Daily Dose 160 (mg), bid q4h
[11] = 320 mg, Total Daily Dose 320 (mg), bid q4h
[12] = 400 mg, Total Daily Dose 400 (mg), bid q4h
[13] = 600 mg, Total Daily Dose 600 (mg), bid q4h
[14] = 800 mg, Total Daily Dose 800 (mg), bid q4h
[15] = 1000 mg, Total Daily Dose 1000 (mg), bid q4h
[16] = 1000 mg, Total Daily Dose 1000 (mg), bid q6h
[17] = 1400 mg, Total Daily Dose 1400 (mg), bid q4h
[18] = 1500 mg, Total Daily Dose 1500 (mg), tid q4h
[19] = 2000 mg, Total Daily Dose 2000 (mg), bid q4h
[20] = Total Daily Dose 20 mg, Colon adencarcinoma
[21] = Total Daily Dose 400 mg, Colon adenocarcinoma
[22] = Total Daily Dose 400 mg, Ovarian carcinoma
[23] = Total Daily Dose 500 mg, Breast carcinoma (triple negative)

With `CC(=O)c1cc2c(o1)C(=O)c1ccccc1C2=O` [Compound 1, 2-acetylnaphtho[2,3-b]furan-4,9-dione] the “antitumor activity in patient urine” value [1] was “remained potent against cancer cells”, the β-catenin protein levels [2] was “reduced” and the “patient exposure, 500 mg three times a day (TID) versus twice daily” value ([3]; human subjects) was “not significantly improved”. It also gave a Tmax [3, 6] of 3 h, an AUC(0-t) [3, 6] of 2.01 µM·h and a concentration at 24 h [3, 6] of 30 nM. The half-life [3, 6] was 18.5 h, the Cmax [3, 7] was 500 nM and the Tmax [3, 7] was 0.5 h. The AUC(0-t) [3, 7] was 3.44 µM·h, the concentration at 24 h [3, 7] was 30 nM and the half-life [3, 7] was 4.5 h. It also gave an AUC [3, 8] of 8.13 µM·h, a Cmax [3, 8] of 900 nM and a Tmax [3, 8] of 8.1 h. The AUC(0-t) [3, 8] was 7.95 µM·h, the concentration at 24 h [3, 8] was 30 nM and the half-life [3, 8] was 3.6 h. The Cmax [3, 9] was 2240 nM, the Tmax [3, 9] was 1.5 h and the AUC(0-t) [3, 9] was 12.8 µM·h. For the same molecule, the concentration at 24 h [3, 9] was 70 nM, the half-life [3, 9] was 5.2 h and the Cmax [3, 10] was 1330 nM. It also gave a Tmax [3, 10] of 3.9 h, an AUC [3, 11] of 38.3 µM·h and a Cmax [3, 11] of 2920 nM. For the same molecule, the Tmax [3, 11] was 3.8 h, the AUC(0-t) [3, 11] was 33.1 µM·h and the concentration at 24 h [3, 11] was 240 nM. For the same molecule, the half-life [3, 11] was 5.7 h, the AUC [3, 12] was 48.2 µM·h and the Cmax [3, 12] was 3750 nM. It also gave a Tmax [3, 12] of 7.9 h, an AUC(0-t) [3, 12] of 40.2 µM·h and a concentration at 24 h [3, 12] of 620 nM. For the same molecule, the half-life [3, 12] was 6.9 h, the AUC [3, 13] was 37.1 µM·h and the Cmax [3, 13] was 2670 nM. It also gave a Tmax [3, 13] of 3.2 h, an AUC(0-t) [3, 13] of 27.8 µM·h and a concentration at 24 h [3, 13] of 420 nM. It also gave a half-life [3, 13] of 9 h, an AUC [3, 14] of 27 µM·h and a Cmax [3, 14] of 3040 nM. The Tmax [3, 14] was 4.3 h, the AUC(0-t) [3, 14] was 26.1 µM·h and the concentration at 24 h [3, 14] was 160 nM. It also gave a half-life [3, 14] of 4 h, an AUC [3, 15] of 50.7 µM·h and a Cmax [3, 15] of 4970 nM. It also gave a Tmax [3, 15] of 6.6 h, an AUC(0-t) [3, 15] of 45.1 µM·h and a concentration at 24 h [3, 15] of 290 nM. The half-life [3, 15] was 6.6 h, the AUC [3, 16] was 22.9 µM·h and the Cmax [3, 16] was 1360 nM. The Tmax [3, 16] was 5.7 h, the AUC(0-t) [3, 16] was 15.8 µM·h and the concentration at 24 h [3, 16] was 330 nM. It also gave a half-life [3, 16] of 12.7 h, an AUC [3, 17] of 45 µM·h and a Cmax [3, 17] of 2050 nM. The Tmax [3, 17] was 2.9 h, the AUC(0-t) [3, 17] was 28.2 µM·h and the concentration at 24 h [3, 17] was 650 nM. The half-life [3, 17] was 13.6 h, the AUC [3, 18] was 59.9 µM·h and the Cmax [3, 18] was 3750 nM. The Tmax [3, 18] was 7.3 h, the AUC(0-t) [3, 18] was 46.4 µM·h and the concentration at 24 h [3, 18] was 940 nM. For the same molecule, the half-life [3, 18] was 8.2 h, the AUC [3, 19] was 45.8 µM·h and the Cmax [3, 19] was 1690 nM. For the same molecule, the Tmax [3, 19] was 6.3 h, the AUC(0-t) [3, 19] was 25.9 µM·h and the concentration at 24 h [3, 19] was 800 nM. For the same molecule, the half-life [3, 19] was 17.2 h, the “pharmacokinetics, 500 mg BID (q4h) versus 500 mg QD” value ([3]; patients, FIG. 1) was “no significant difference” and the “accumulation of β-catenin in cell nucleus in tumor tissues (IHC)” value [4] was “effective in removing or preventing the accumulation of β-catenin in cell nucleus”. The “antitumor activity in a kidney with colon cancer lesions” value ([5]; 20 mg QD, very high concentration of the drug in urine) was “signs of particularly potent antitumor activity”, the “regression of a colon cancer metastatic lesion to kidney” value ([5]; Patient 0001) was “complete regression” and the “disease control (disease stabilization and tumor regression), patients evaluable for tumor response” value ([5]; Phase I, tumors refractory to chemotherapies) was 65%. The “Weeks on Study” value [5, 20] was 76 weeks, the regression [5, 20] was 22% and the “Weeks on Study” value ([5]; Total Daily Dose 80 mg, Head and fleck carcinoma) was 17 weeks. For the same molecule, the “Weeks on Study” value ([5]; Total Daily Dose 320 mg, Colon adenocarcinoma (two patients)) was 24 weeks and 12 weeks, the CEA [5, 21] was 50% and the “Weeks on Study” value [5, 21] was 11 weeks. For the same molecule, the “Weeks on Study” value ([5]; Total Daily Dose 400 mg, Gastric adenocarcinoma) was 19 weeks, the CA125 [5, 22] was “CA125 normalization” and the “Weeks on Study” value [5, 22] was 16 weeks. The “Weeks on Study” value [5, 23] was 29 weeks, the “outcome after surgical resection of remaining hollowed lesion” value [5, 23] was “resected; patient disease free)” and the “Weeks on Study” value ([5]; Total Daily Dose 800 mg, Chondrosarocoma) was 13 weeks. For the same molecule, the “Weeks on Study” value ([5]; Total Daily Dose 1000 mg, Adrenocarticoid carcinoma) was 17 weeks, the “Weeks on Study” value ([5]; Total Daily Dose 1000 mg, Colon: adencarcinoma) was 16 weeks and the “Weeks on Study” value ([5]; Total Daily Dose 1400 mg, Melanona) was 16 weeks.

From patent US10543189B2, “2-acetylnaphtho[2,3-b]furan -4,9-dione for use on treating cancer” (Boston Biomedical, Inc., priority 2013, dated 2020)
